Reference: US20240279220A1, “INDOLE COMPOUNDS AND METHODS OF USE” (Genzyme Corporation, priority 2021, published 2024)

Tested on: NBD1/3D
Experiment: Aggregation analysis using differential static light scattering (DSLS), NBD1 thermal stability
Type: binding, Human
Details: ΔTagg versus DMSO control; compound at 100 μM
Outline: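 Thermal stabilisation reported as ΔTagg, i.e. aggregation temperature relative to averaged DMSO wells. Tagg came from the inflection of differential static light scattering imaged 25–70 °C while NBD1 (0.2 mg/ml, Tris pH 7.6 buffer containing ATP, MgCl2, DTT, glycerol) was ramped 1 °C/min.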

Row | Compound | DSLS NBD1/3D Human Stability delta-T (° C.) @ 100 (μM)
1 | Cc1c(Oc2ccc(F)c(-c3ncc(C(C)(O)c4cccc(CCC(=O)O)c4)[nH]3)c2)c(F)cc2[nH]ccc12 (centres unmarked) [Example 186, 3-(3-(1-(2-(2-fluoro-5-((6-fluoro-4-methyl-1H-indol-5-yl)oxy)phenyl)-1H-imidazol-5-yl)-1-hydroxyethyl)phenyl) propanoic acid] | B (B: 5-10° C.)
2 | CS(=O)(=O)c1c(Oc2ccc(F)c(-c3nc(C4(c5cccc(CCC(=O)O)c5)CC4)co3)c2)c(F)cc2[nH]ccc12 [Example 81, 3-(3-(1-(2-(2-Fluoro-5-((6-fluoro-4-(methylsulfonyl)-1H-indol-5-yl)oxy)phenyl)oxazol-4-yl)cyclopropyl)phenyl)propanoic acid] | B (B: 5-10° C.)
3 | Cc1c(Oc2ccc(F)c(-c3ncc(Cc4cccc(CCC(=O)O)c4)[nH]3)c2)c(F)cc2[nH]ccc12 [Example 115, 3-(3-((2-(2-fluoro-5-((6-fluoro-4-methyl-1H-indol-5-yl)oxy)phenyl)-1H-imidazol-5-yl)methyl)phenyl)propanoic acid] | B (B: 5-10° C.)
4 | C=Cc1c(Oc2cccc(-c3ncc(C(O)c4cccc(CCC(=O)O)c4)[nH]3)c2)ccc2[nH]ccc12 (centres unmarked) [Example 174, 3-(3-(hydroxy(2-(3-((4-vinyl-1H-indol-5-yl)oxy)phenyl)-1H-imidazol-5-yl)methyl)phenyl)propanoic acid] | B (B: 5-10° C.)
5 | CC(O)(c1cccc(CCC(=O)O)c1)c1cnc(-c2cc(Oc3c(F)cc4[nH]ccc4c3CC(F)(F)F)ccc2F)[nH]1 (centres unmarked) [Example 190, 3-(3-(1-(2-(2-fluoro-5-((6-fluoro-4-(2,2,2-trifluoroethyl)-1H-indol-5-yl)oxy)phenyl)-1H-imidazol-5-yl)-1-hydroxyethyl)phenyl) propanoic acid] | B (B: 5-10° C.)
6 | Cc1c(Oc2ccc(F)c(-c3ncc(C4(c5cccc(CCC(=O)O)c5)CCN(CC(F)(F)F)CC4)[nH]3)c2)c(F)cc2[nH]ccc12 [Example 168, 3-(3-(4-(2-(2-fluoro-5-((6-fluoro-4-methyl-1H-indol-5-yl)oxy)phenyl)-1H-imidazol-5-yl)-1-(2,2,2-trifluoroethyl)piperidin-4-yl)phenyl)propanoic acid] | B (B: 5-10° C.)
7 | CC(c1cccc(CCC(=O)O)c1F)n1ccc(-c2cc(Oc3c(F)cc4[nH]ccc4c3S(C)(=O)=O)ccc2F)n1 (single isomer, unassigned) [Example 41A, 3-(2-fluoro-3-(1-(3-(2-fluoro-5-((6-fluoro-4-(methylsulfonyl)-1H-indol-5-yl)oxy)phenyl)-1H-pyrazol-1-yl)ethyl)phenyl)propanoic acid] | C (C: ≤5° C.)
8 | Cc1c(Oc2ccc(F)c(-c3ncc(C4(c5cccc(CCC(=O)O)c5)CCOC4)[nH]3)c2)c(F)cc2[nH]ccc12 (centres unmarked) [Example 153, 3-(3-(3-(2-(2-fluoro-5-((6-fluoro-4-methyl-1H-indol-5-yl)oxy)phenyl)-1H-imidazol-5-yl)tetrahydrofuran-3-yl)phenyl)propanoic acid] | A (A: T ≥ 10° C.)
9 | O=C(O)CCc1cccc(Cc2cnc(-c3cccc(Oc4c(F)cc5[nH]ccc5c4SC(F)(F)F)c3)[nH]2)c1 [Example 102, 3-(3-((2-(3-((6-fluoro-4-((trifluoromethyl)thio)-1H-indol-5-yl)oxy)phenyl)-1H-imidazol-5-yl)methyl)phenyl)propanoic acid] | B (B: 5-10° C.)
10 | Cc1c(Oc2ccc(F)c(-c3ccn(Cc4cnc(CCC(=O)O)s4)n3)c2)c(F)cc2[nH]ccc12 [Example 18, 3-(5-((3-(2-Fluoro-5-((6-fluoro-4-methyl-1H-indol-5-yl)oxy)phenyl)-1H-pyrazol-1-yl)methyl)thiazol-2-yl)propanoic acid] | C (C: ≤5° C.)
11 | CC(O)(c1cccc(CCC(=O)O)c1)c1cnc(-c2cc(Oc3c(F)cc4[nH]ccc4c3F)ccc2F)[nH]1 (single isomer, unassigned) [Example 216B, 3-(3-(1-(2-(5-((4,6-difluoro-1H-indol-5-yl)oxy)-2-fluorophenyl)-1H-imidazol-5-yl)-1-hydroxyethyl)phenyl) propanoic acid] | A (A: T ≥ 10° C.)
12 | CCS(=O)(=O)c1c(Oc2ccc(F)c(-c3ncc(C(C)(O)c4cccc(CCC(=O)O)c4)[nH]3)c2)c(F)cc2[nH]ccc12 (centres unmarked) [Example 27, 3-(3-(1-(2-(5-((4-(ethylsulfonyl)-6-fluoro-1H-indol-5-yl)oxy)-2-fluorophenyl)-1H-imidazol-5-yl)-1-hydroxyethyl)phenyl)propanoic acid] | B (B: 5-10° C.)
13 | CC(=O)NS(=O)(=O)Cc1cccc(C(C)(O)c2cnc(-c3cccc(Oc4c(F)cc5[nH]ccc5c4F)c3)[nH]2)c1 (centres unmarked) [Example 212, N-((3-(1-(2-(3-((4,6-Difluoro-1H-indol-5-yl)oxy)phenyl)-1H-imidazol-5-yl)-1-hydroxyethyl)benzyl)sulfonyl)acetamide] | B (B: 5-10° C.)
14 | CC(C)(C)NCc1c(Oc2cccc(-c3ncc(C(O)c4cccc(CCC(=O)O)c4)[nH]3)c2)ccc2[nH]ccc12 (centres unmarked) [Example 263, 3-(3-((2-(3-((4-((tert-Butylamino)methyl)-1H-indol-5-yl)oxy)phenyl)-1H-imidazol-5-yl)(hydroxy)methyl)phenyl)propanoic acid] | A (A: T ≥ 10° C.)
15 | Cc1c(Oc2ccc(F)c(-c3nc(C4(c5cccc(CCC(=O)O)c5)CCOC(C)C4)c[nH]3)c2)c(F)cc2[nH]ccc12 (single isomer, unassigned) [Example 154, 3-(3-(4-(2-(2-fluoro-5-((6-fluoro-4-methyl-1H-indol-5-yl)oxy)phenyl)-1H-imidazol-4-yl)-2-methyltetrahydro-2H-pyran-4-yl)phenyl)propanoic acid] | A (A: T ≥ 10° C.)
16 | CCCC(O)(c1cccc(CCC(=O)O)c1)c1c[nH]c(-c2cc(Oc3c(F)cc4[nH]ccc4c3C)ccc2F)n1 (centres unmarked) [Example 225, 3-(3-(1-(2-(2-fluoro-5-((6-fluoro-4-methyl-1H-indol-5-yl)oxy)phenyl)-1H-imidazol-4-yl)-1-hydroxybutyl)phenyl) propanoic acid] | B (B: 5-10° C.)
17 | Cc1c(Oc2ccc(F)c(-c3nc(C(C)(O)c4cc(F)cc(CCC(=O)O)c4)c[nH]3)c2)c(F)cc2[nH]ccc12 (centres unmarked) [Example 192, 3-(3-fluoro-5-(1-(2-(2-fluoro-5-((6-fluoro-4-methyl-1H-indol-5-yl)oxy)phenyl)-1H-imidazol-4-yl)-1-hydroxyethyl)phenyl) propanoic acid] | B (B: 5-10° C.)
18 | Cc1c(Oc2ccc(F)c(-c3nc(C4(c5cccc(CCC(=O)O)c5)OCCCO4)c[nH]3)c2)c(F)cc2[nH]ccc12 [Example 231, 3-(3-(2-(2-(2-fluoro-5-((6-fluoro-4-methyl-1H-indol-5-yl)oxy)phenyl)-1H-imidazol-4-yl)-1,3-dioxan-2-yl)phenyl)propanoic acid] | A (A: T ≥ 10° C.)
19 | O=C(O)CCc1cccc(Cc2csc(-c3cccc(Oc4ccc5[nH]ccc5c4CO)c3)n2)c1 [Example 99, 3-(3-((2-(3-((4-(Hydroxymethyl)-1H-indol-5-yl)oxy)phenyl)thiazol-4-yl)methyl)phenyl)propanoic acid] | B (B: 5-10° C.)
20 | O=C(O)CCc1cccc(C2(c3cnc(-c4cc(Oc5ccc6scnc6c5)ccc4F)[nH]3)CCOCC2)c1 [Example 166, 3-(3-(4-(2-(5-(Benzo[d]thiazol-5-yloxy)-2-fluorophenyl)-1H-imidazol-5-yl)tetrahydro-2H-pyran-4-yl)phenyl)propanoic acid] | C (C: ≤5° C.)
21 | O=C(O)CCCCC#Cc1ccc(Cc2nnc(-c3cccc(Oc4ccc5[nH]ccc5c4)c3)[nH]2)cc1 [Example 253, 7-(4-((5-(3-((1H-Indol-5-yl)oxy)phenyl)-4H-1,2,4-triazol-3-yl)methyl)phenyl)hept-6-ynoic acid] | C (C: ≤5° C.)
22 | CC(O)(c1cccc(CCC(=O)O)c1)c1csc(-c2cccc(Oc3c(F)cc4[nH]ccc4c3P(C)(C)=O)c2)n1 (centres unmarked) [Example 98, 3-(3-(1-(2-(3-((4-(Dimethylphosphoryl)-6-fluoro-1H-indol-5-yl)oxy)phenyl)thiazol-4-yl)-1-hydroxyethyl)phenyl)propanoic acid] | B (B: 5-10° C.)
23 | O=C(O)CCc1cccc(C2(c3csc(-c4cc(Oc5c(F)cc6[nH]ccc6c5F)ccc4F)n3)CC(F)(F)C2)c1 [Example 94, 3-(3-(1-(2-(5-((4,6-difluoro-1H-indol-5-yl)oxy)-2-fluorophenyl)thiazol-4-yl)-3,3-difluorocyclobutyl)phenyl)propanoic acid] | B (B: 5-10° C.)
24 | COC(=O)CCc1cccc(C(C)(O)c2cnc(-c3cccc(Oc4ccc5[nH]ccc5c4CNC(C)=O)c3)[nH]2)c1 (centres unmarked) [Example 264, Methyl 3-(3-(1-(2-(3-((4-(acetamidomethyl)-1H-indol-5-yl)oxy)phenyl)-1H-imidazol-5-yl)-1-hydroxyethyl)phenyl)propanoate] | A (A: T ≥ 10° C.)
25 | Cc1c(Oc2ccc(F)c(-c3nc(Cc4csc(CCC(=O)O)n4)c[nH]3)c2)c(F)cc2[nH]ccc12 [Example 89, 3-(4-((2-(2-Fluoro-5-((6-fluoro-4-methyl-1H-indol-5-yl)oxy)phenyl)-1H-imidazol-4-yl)methyl)thiazol-2-yl)propanoic acid] | B (B: 5-10° C.)
26 | CS(=O)(=O)c1c(Oc2cccc(-c3ncn(Cc4cccc(CCC(N)=O)c4)n3)c2)c(F)cc2[nH]ccc12 [Example 34, 3-(3-((3-(3-((6-Fluoro-4-(methylsulfonyl)-1H-indol-5-yl)oxy)phenyl)-1H-1,2,4-triazol-1-yl)methyl)phenyl)propanamide] | B (B: 5-10° C.)
